Experimental data as given in patent publication US20220125893A1, “METHODS FOR TREATING ARTHRITIS USING SPL-108 PEPTIDE” (Splash Pharmaceuticals, Inc., priority 2019, published 2022).

Legend:
[1] = system: fibroblast-like synoviocytes (FLSs); test: In vitro Scratch migration assay of FLSs; assay type: cell-based; settings: 0.1, 1.0, 10.0, 100 μM
Description: Cells were grown to confluence and a thin “wound” was introduced by scratching with a pipette tip. Cells at the wound edge polarize and migrate into the wound space.

CIA mice = test: Collagen-induced arthritis (CIA) mouse model; assay type: in vivo
Excerpt: FIGS. 10A, 10B, 10C, 10D, and 10E show histology and histological scores in ankles collected at the end of the experiments. At the end of the experiment, ankle bones were collected and decalcified in EDTA for 10 days. Decalcified bones were embedded and sagittal sections obtained and stained. H&E staining was used to help score cell infiltration, synovial thickness, and bone damage (FIG. 10A). In the figure, safranin staining will help to score cartilage damage. Black arrows show infiltration in arthritic mice treated with PBS compared to control mice without arthritis. White arrows show lack of safranin staining in the arthritic mice cartilage because of proteoglycan degradation compared to control mice without arthritis.
In the examples below, mice were used in a collagen-induced arthritis (CIA) model, a commonly used model to examine pathogenesis of rheumatoid arthritis. […] At day 0, mice were immunized with type II collagen/CFA. […] Arthritis onset subsequently occurs 4-10 days after the day 28 LPS injection. The experimental groups consisted of four groups: group 1: 6 CIA mice treated with vehicle; group 2: 6 CIA mice treated with […] SPL-108 twice a day, starting at arthritis onset (between day 32 to 36); group 3: 6 CIA mice treated with 100 mg/kg SPL-108 twice a day, starting at arthritis onset (between day 32 to 36); and group 4: 6 mice without CIA and not treated (negative control). In preventive strategies, a prophylactic treatment of SPL-108 would be started at day 0, at the time of first immunization.
FIGS. 10A, 10B, 10C, 10D, and 10E show histological scores of ankle bones collected at the end of experiments. At the end of the experiment, ankles were collected and decalcified in EDTA for 10 days. They were embedded and sagittal sections were obtained and stained. H&E staining was used to help score cell infiltration, synovial thickness, and bone damage. In the figure, safranin staining will help to score cartilage damage. Black arrows show infiltration in arthritic mice treated with PBS compared to control mice without arthritis. White arrows show lack of safranin staining (red) in the arthritic mice cartilage because of proteoglycan degradation compared to control mice without arthritis.

[2] = system: fibroblast-like synoviocytes (FLSs); test: In vitro Matrigel invasion assay of FLSs; assay type: cell-based; settings: 0.1, 1.0, 10.0, 100 μM; presence and absence of PDGF 10 ng/mL
Description: FIG. 8A and FIG. 8B show the effects of SPL-108 (A6) on the invasion of FLSs using an in vitro Matrigel invasion assay. Platelet-derived growth factor (10 ng/mL) was used to stimulate invasion and the area of invasion was measured in […] before and after the addition of 0.1, 1.0, 10.0, and 100 μM SPL-108 (A6) in the presence and absence of PDGF.

[3] = system: arthritis-induced osteoclastogenesis; settings: other animal studies; cited from earlier work
[4] = system: pre-existing osteoarthritis; test: Osteoarthritis symptoms in ovarian cancer patients on SPL-108 plus paclitaxel; assay type: in vivo, human; settings: two patients; SPL-108 150 mg twice a day with paclitaxel 80 mg/m^2 weekly on Days 1, 8, 15, three 28-day cycles
Description: Two patients diagnosed with […] ovarian cancer, and enrolled in a clinical trial for evaluating the efficacy of SPL-108 in combination with paclitaxel (standard-of-care treatment), reported relief from symptoms of pre-existing osteoarthritis. Each patient received SPL-108 150 mg twice a day and Paclitaxel 80 mg/m^2 weekly on Days 1, 8, and 15, in three 28-day cycles. Each patient received a total of 25,200 mg of SPL-108 over the course of treatment.

[5] = ankles at end of experiment, H&E staining
[6] = either dose (50 or 100 mg/kg twice a day)

Ac-KPSSPPEE-NH2 [SPL-108]
migration of FLSs into wound space [1]: inhibited the migration of FLSs in a dose-dependent manner
clinical score vs vehicle, significance (CIA mice; 50 mg/kg twice a day): significantly different at day 4, 5, 6, 7
paw swelling vs vehicle, significance (CIA mice; 50 mg/kg twice a day): significantly different from day 11 to day 19
body weight vs vehicle, significance (CIA mice; 50 mg/kg twice a day from arthritis onset): significantly different at day 7 and 9
clinical score vs vehicle, significance (CIA mice; 100 mg/kg twice a day): significantly different from day 4 to day 20
paw swelling vs vehicle, significance (CIA mice; 100 mg/kg twice a day): significantly different from day 11 to day 19
body weight vs vehicle, significance (CIA mice; 100 mg/kg twice a day from arthritis onset): significantly different at day 5, 7, 9 and 11
body weight decrease (CIA mice; CIA mice, through 11 days after disease onset, vehicle 3 grams decrease): ~1 gram
bone damage (histological score) (CIA mice; [5]): reduction
synovial hypertrophy (histological score) (CIA mice; [5]): reduction
synovial infiltration (histological score) (CIA mice; [5]): reduction
cartilage damage (histological score) (CIA mice; ankles at end of experiment, safranin staining): reduction
clinical score compared to vehicle (CIA mice; [6]): lower
paw swelling (paw size) compared to vehicle (CIA mice; [6]): lower
invasion of FLSs (area of invasion) [2]: inhibited the invasion of FLSs in a dose-dependent manner
arthritis-induced osteoclastogenesis [3]: inhibited arthritis-induced osteoclastogenesis
improvement in osteoarthritis symptoms [4]: reduction to elimination of joint pain
